Measurements as given in patent publication US20260234159A1, “SMALL MOLECULE TREATMENT OF FATTY LIVER DISEASE AND HCC” (SCANDIEDGE THERAPEUTICS AB, priority 2023, published 2026).

Assays:
[1] = system: HepG2 cells; assay: Wound healing assay; type: cell-based; details: Homo sapiens, HepG2, 96 h, day 4, untreated 100% wound closure, read-out: wound healing delayed by
Summary of the method: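 HepG2 monolayers grown to 95-100% confluence were scratched with a pipette tip and treated with compounds at 1 μM. Wounds were imaged from day 0 until closure in the control group, and wound area was measured from the images.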

[2] = system: HepG2 cells; assay: MTT cell viability / IC50 in growth media; type: cell-based, human; details: for IC50: Homo sapiens, 48 h, HepG2, treatment for 2 days; for cell viability of HepG2 cells: especially in cancerous media
[3] = MTT cell viability / IC50 in growth media; type: cell-based, human; details: human, HepG2 cells, 10 μM; for viability at 2 days, 10 µM: treatment for 2 days; for viability at 4 day, 10 µM: day 4
[4] = MTT cell viability after one week steatosis (ranking of target molecules); type: cell-based, human; details: human, HepG2 cells (wild type); HepG2, 10 μM, one week steatosis induce media, MTT; Control 100.00
Summary of the method: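 HepG2 cells, 60,000 per well, kept one week in steatosis medium (high-glucose DMEM, 10 μg/ml insulin, 10 μM T0901317) with 10 μM compound. Medium changed at day 0, 3 and 5. Viability measured by MTT.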

[5] = system: HepG2 cells; assay: FACs analysis with PI staining (cell cycle); type: cell-based, human; details: for Cell population G0/G1 / Cell population G2/M / Cell population S: PI FACs, 10 μM, 2 days; for cells in the G2/M phase: histogram plots
Protocol: 400,000 HepG2 cells were seeded in a 6-well plated and treated with 10 μM of the compounds for 2 days. Cells were fixed with 70% ethanol and stained with 50 μg/ml PI. Prepared cells were analysed using BD FACS Canto II Flow Cytometry system at PE-A channel 10,000 cells per group. The data was histogram plotted with BD FACSDiva 9.0.

[6] = system: JNK1/2/3; assay: Western blot, JNK1/2/3 P54 and p46 isoforms; type: cell-based, human; details: 10 μM, 2 days
Protocol: HepG2 cells were seeded into a 6-well plate at 400,000 cells per well. After treatment with 10 μM of JNK-IN-5A and its derivatives for two days, lysates were harvested with CelLytic M (C2978, Sigma-Aldrich). […] SDS PAGE were performed using Mini-PROTEAN® TGX™ Precast Gels (Bio-Rad) and transferred using Trans-Blot® Turbo™ Transfer System (Bio-Rad). […] ImageQuantTMLAS 500 (29-0050-63, GE) was used to detect protein bands.

[7] = In vivo toxicological study in rats: clinical observations and body weight; details: 300 mg/kg oral administration
Protocol: Forty-two male and forty-two female rats of the Wistar strain were allocated to the study. Three groups of three males and three females were given doses of 30, 100 and 300 mg/kg of target compounds (Table 8). The vehicle was 1.5 w/w % HPMC, 1.5 w/w % PS80 in 10 mM PBS, pH 7 and dose volume were 5 mL/kg.
The animals were acclimatised at least 14 day prior to the study and exposed to a 12 hours light, 12 hours dark light cycle. The formulations were administered via oral gavage. Administration occurred once daily in the morning for seven consecutive days.
A check of animal health and welfare status was done at least once on working days and weekend days.
Body weights were recorded the week before and within 24 hours before start of dosing, on Day 3 and on necropsy Day 8.

Structure (SMILES)	inhibition at 1 µM [1] [%]	dose dependence of cell viability ([2]; 30 μM to 30 nM)	IC50 ([2]; 30 μM to 30 nM) [µM]	viability at 2 days, 10 µM [3] [%]	viability at 1 week, 10 µM [4] [%]	cell cycle distribution / arrest ([5]; PI FACS)	Cell population G0/G1 [5]	Cell population G2/M [5]	Cell population S [5]	JNK1/2/3 p46 expression [6]	cell viability of HepG2 cells [2]	viability at 4 day, 10 µM [3] [%]	tolerability (adverse clinical signs, body weight, clinical pathology parameters) [7]	cells in the G2/M phase [5]
N#Cc1c(NC(=O)c2cccc3ccccc23)sc2c1CCCC2 [JNK-IN-5A, N-(3-cyano-4,5,6,7-tetrahydrobenzo[b]thiophen-2-yl)-1-naphthamide]	32.7	non-dose-dependent, linear reduction in cell viability	36.4	59.7	56.4	significant G2/M cell cycle arrest	22.7	67.3	4.4	0.88 times				
COc1ccc(C(=O)Nc2sc3c(c2C#N)CCCCC3)cc1OC [PKL-A135, N-(3-cyano-5,6,7,8-tetrahydro-4H-cyclohepta[b]thiophen-2-yl)-3,4-dimethoxy-benzamide]	31.2		12	43.1	63.2		5.5	79.9	2.0	0.77 times	significantly low cell viability	15.9	well tolerated	around 89%
COc1ccccc1NC(=O)N1CCc2c(sc(NC(=O)c3cccc4ccccc34)c2C#N)C1 [PKL-A152]					43.9								well tolerated	
N#Cc1c(NC(=O)c2cccc3ccccc23)sc2c1CCN(C(=O)Nc1ccccc1OC(F)(F)F)C2 [PKL-A159]	35.5		9.72	61.6	2.33		30.5	62.4	3.3	not significantly altered			well tolerated	
N#Cc1c(NC(=O)c2cccc3ccccc23)sc2c1CCN(CC(=O)Nc1cccc(Br)c1)C2 [PKL-B171]	36.4		21.8	67.4	22		6.6	79.1	3.6	0.87 times	particularly low cell viability	1.1	well tolerated	around 89%
